# Test results: patent US20210009542A1 (Calico Life Sciences LLC, priority 2018, published 2021)
# pIC50: −log10 of the molar value. Where two headings read alike, the source gives them in different places.
# How the values were obtained:
# [1] = target: T1, His tagged PTPN2 (TC45) protein (Homo sapiens, UniProt P17706); assay: Mobility shift assay (MSA) for potency of PTPN2 inhibitors; type: biochemical; settings: read-out: PTPN2 MSA IC50
# T1 construct: made in house
# T1 sequence (P17706 with tags, fused parts or gaps isoform P17706-2): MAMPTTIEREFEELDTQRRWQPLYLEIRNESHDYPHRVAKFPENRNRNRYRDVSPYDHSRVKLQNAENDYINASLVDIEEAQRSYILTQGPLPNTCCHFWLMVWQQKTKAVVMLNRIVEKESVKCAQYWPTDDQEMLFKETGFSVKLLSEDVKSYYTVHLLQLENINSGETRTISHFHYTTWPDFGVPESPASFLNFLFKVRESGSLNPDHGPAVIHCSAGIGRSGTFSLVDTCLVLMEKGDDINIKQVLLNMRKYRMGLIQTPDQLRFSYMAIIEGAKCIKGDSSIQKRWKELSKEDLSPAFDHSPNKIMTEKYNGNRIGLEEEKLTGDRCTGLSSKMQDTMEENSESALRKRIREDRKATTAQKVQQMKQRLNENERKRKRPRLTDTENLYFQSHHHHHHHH
# Method in brief: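 His-tagged PTPN2 TC45 (0.5 nM) was preincubated with compound (12-point, 1:3) for 10 min at room temperature in 50 mM HEPES pH 7.5, 1 mM EGTA, 10 mM EDTA, 0.01% Tween 20, 2 mM DTT. OG488-labelled phospho-insulin-receptor peptide ([…]) was then added for 10 min. After quenching, dephosphorylation was measured by microfluidic mobility shift and IC50 derived from % inhibition.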
# [2] = tested on: B16F10 mouse melanoma cells; assay: B16F10 IFNγ-induced cellular growth inhibition assay; type: cell-based; settings: Mus musculus, B16-F10, 33 μM compound
# Method in brief: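 B16F10 cells (500/well, DMEM + 10% FBS) dosed in triplicate at 100 μM to 0.001 μM (0.1% DMSO) with or without 0.5 ng/mL final mouse IFNγ. Confluence imaged every 6 h for 5 days; % growth inhibition calculated versus DMSO/with-IFNγ control once DMSO/no-IFNγ wells exceeded 95% confluence.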
# [3] = +0.5 ng/mL IFNγ, relative to DMSO control, read-out: % B16F10 growth inhibition (+0.5 ng/mL IFNγ) @ 33 μM
# [4] = no IFNγ, read-out: % B16F10 growth inhibition (no IFNγ) @ 33 μM
SMILES,pIC50 [1],"inhibition at 33 µM [2, 3] [%]","inhibition at 33 µM [2, 4] [%]"
"CC(C)CNc1ccc2cc(O)c(N3CC(=O)NS3(=O)=O)c(F)c2c1 [Compound 201, 5-{1-fluoro-3-hydroxy-7-[(2-methylpropyl)amino]naphthalen-2-yl}-1λ^6,2,5-thiadiazolidine-1,1,3-trione]",8.00 to 9.00,60 to 90,< 25
"CS(=O)(=O)N1CC[C@@H](Nc2ccc3cc(O)c(N4CC(=O)NS4(=O)=O)c(F)c3c2)C1 [Compound 304, 5-(1-fluoro-3-hydroxy-7-{[(3R)-1-(methanesulfonyl)pyrrolidin-3-yl]amino}naphthalen-2-yl)-1λ^6,2,5-thiadiazolidine-1,1,3-trione]",8.00 to 9.00,> 90,< 25
"O=C1CN(c2c(O)cc3ccc(OC4CC4)cc3c2F)S(=O)(=O)N1 [Compound 223, 5-[7-(cyclopropyloxy)-1-fluoro-3-hydroxynaphthalen-2-yl]-1λ^6,2,5-thiadiazolidine-1,1,3-trione]",8.00 to 9.00,60 to 90,< 25
"N#CCCCNc1ccc2cc(O)c(N3CC(=O)NS3(=O)=O)c(F)c2c1 [Compound 174, 4-{[8-fluoro-6-hydroxy-7-(1,1,4-trioxo-1λ^6,2,5-thiadiazolidin-2-yl)naphthalen-2-yl]amino}butanenitrile]",8.00 to 9.00,> 90,< 25
"O=C1CN(c2c(O)cc3ccc(NCCN4CCC4)cc3c2F)S(=O)(=O)N1 [Compound 177, 5-(7-{[2-(azetidin-1-yl)ethyl]amino}-1-fluoro-3-hydroxynaphthalen-2-yl)-1λ^6,2,5-thiadiazolidine-1,1,3-trione]",8.00 to 9.00,> 90,< 25
"Nc1ccc(CS(=O)(=O)N2CC=C(c3ccc4cc(O)c(N5CC(=O)NS5(=O)=O)c(F)c4c3)C2)cc1 [Compound 184, 5-(7-{1-[(4-aminophenyl)methanesulfonyl]-2,5-dihydro-1H-pyrrol-3-yl}-1-fluoro-3-hydroxynaphthalen-2-yl)-1λ^6,2,5-thiadiazolidine-1,1,3-trione]",> 9.00,25 to 59,< 25
"CC(C)(C)OCCOc1ccc2cc(O)c(N3CC(=O)NS3(=O)=O)c(F)c2c1 [Compound 217, 5-[7-(2-tert-butoxyethoxy)-1-fluoro-3-hydroxynaphthalen-2-yl]-1λ^6,2,5-thiadiazolidine-1,1,3-trione]",8.00 to 9.00,25 to 59,< 25
"COc1ccc2c(Cl)c(O)c(N3CC(=O)NS3(=O)=O)c(F)c2c1 [Compound 238, 5-(4-chloro-1-fluoro-3-hydroxy-7-methoxynaphthalen-2-yl)-1λ^6,2,5-thiadiazolidine-1,1,3-trione]",7.00 to 8.00,< 25,< 25
"COc1ccc2c(F)c(O)c(N3CC(=O)NS3(=O)=O)c(F)c2c1 [Compound 117, 5-(1,4-difluoro-3-hydroxy-7-methoxynaphthalen-2-yl)-1λ^6,2,5-thiadiazolidine-1,1,3-trione]",8.00 to 9.00,25 to 59,< 25
"CC(C)OCCOc1ccc2cc(O)c(N3CC(=O)NS3(=O)=O)c(F)c2c1 [Compound 215, 5-(1-fluoro-3-hydroxy-7-{2-[(propan-2-yl)oxy]ethoxy}naphthalen-2-yl)-1λ^6,2,5-thiadiazolidine-1,1,3-trione]",8.00 to 9.00,60 to 90,< 25
"COCCNc1ccc2cc(O)c(N3CC(=O)NS3(=O)=O)c(F)c2c1 [Compound 179, 5-{1-fluoro-3-hydroxy-7-[(2-methoxyethyl)amino]naphthalen-2-yl}-1λ^6,2,5-thiadiazolidine-1,1,3-trione]",7.00 to 8.00,> 90,< 25
"O=C1CN(c2c(O)cc3ccc(OCCO)cc3c2F)S(=O)(=O)N1 [Compound 277, 5-[1-fluoro-3-hydroxy-7-(2-hydroxyethoxy)naphthalen-2-yl]-1λ^6,2,5-thiadiazolidine-1,1,3-trione]",8.00 to 9.00,60 to 90,< 25
"O=C1CN(c2c(O)cc3ccc(C4CN(C(=O)C5CC5)C4)cc3c2F)S(=O)(=O)N1 [Compound 207, 5-{7-[1-(cyclopropanecarbonyl)azetidin-3-yl]-1-fluoro-3-hydroxynaphthalen-2-yl}-1λ^6,2,5-thiadiazolidine-1,1,3-trione]",8.00 to 9.00,25 to 59,< 25
"NCCOc1ccc2cc(O)c(N3CC(=O)NS3(=O)=O)c(F)c2c1 [Compound 309, 5-[7-(2-aminoethoxy)-1-fluoro-3-hydroxynaphthalen-2-yl]-1λ^6,2,5-thiadiazolidine-1,1,3-trione]",8.00 to 9.00,60 to 90,< 25
"O=C1CN(c2c(O)cc3ccc(CC4CN(S(=O)(=O)C5CC5)C4)cc3c2F)S(=O)(=O)N1 [Compound 256, 5-(7-{[1-(cyclopropanesulfonyl)azetidin-3-yl]methyl}-1-fluoro-3-hydroxynaphthalen-2-yl)-1λ^6,2,5-thiadiazolidine-1,1,3-trione]",> 9.00,25 to 59,< 25
"CC1(CCOc2ccc3cc(O)c(N4CC(=O)NS4(=O)=O)c(F)c3c2)CC1 [Compound 193, 5-{1-fluoro-3-hydroxy-7-[2-(1-methylcyclopropyl)ethoxy]naphthalen-2-yl}-1λ^6,2,5-thiadiazolidine-1,1,3-trione]",> 9.00,25 to 59,< 25
"CC(C)CCS(=O)(=O)N1CC=C(c2ccc3cc(O)c(N4CC(=O)NS4(=O)=O)c(F)c3c2)C1 [Compound 313, 5-{1-fluoro-3-hydroxy-7-[1-(3-methylbutane-1-sulfonyl)-2,5-dihydro-1H-pyrrol-3-yl]naphthalen-2-yl}-1λ^6,2,5-thiadiazolidine-1,1,3-trione]",> 9.00,60 to 90,< 25
"O=C1CN(c2c(O)cc3ccc(OCC4CCOCC4)cc3c2F)S(=O)(=O)N1 [Compound 273, 5-{1-fluoro-3-hydroxy-7-[(oxan-4-yl)methoxy]naphthalen-2-yl}-1λ^6,2,5-thiadiazolidine-1,1,3-trione]",8.00 to 9.00,60 to 90,< 25
"O=C1CN(c2c(O)cc3ccc(CC4CCN(CC(F)(F)F)CC4)cc3c2F)S(=O)(=O)N1 [Compound 252, 5-(1-fluoro-3-hydroxy-7-{[1-(2,2,2-trifluoroethyl)piperidin-4-yl]methyl}naphthalen-2-yl)-1λ^6,2,5-thiadiazolidine-1,1,3-trione]",8.00 to 9.00,25 to 59,< 25
"O=C1CN(c2c(O)cc3ccc(C4CN(S(=O)(=O)C5CC5)C4)cc3c2F)S(=O)(=O)N1 [Compound 206, 5-{7-[1-(cyclopropanesulfonyl)azetidin-3-yl]-1-fluoro-3-hydroxynaphthalen-2-yl}-1λ^6,2,5-thiadiazolidine-1,1,3-trione]",8.00 to 9.00,60 to 90,< 25
"COC/C=C/c1ccc2cc(O)c(N3CC(=O)NS3(=O)=O)c(F)c2c1 [Compound 245, 5-{1-fluoro-3-hydroxy-7-[(1E)-3-methoxyprop-1-en-1-yl]naphthalen-2-yl}-1λ^6,2,5-thiadiazolidine-1,1,3-trione]",8.00 to 9.00,60 to 90,< 25
"O=C1CN(c2c(O)cc3ccc(C4=CCN(C(=O)C5CC5)C4)cc3c2F)S(=O)(=O)N1 [Compound 237, 5-{7-[1-(cyclopropanecarbonyl)-2,5-dihydro-1H-pyrrol-3-yl]-1-fluoro-3-hydroxynaphthalen-2-yl}-1λ^6,2,5-thiadiazolidine-1,1,3-trione]",8.00 to 9.00,> 90,< 25
"CS(=O)(=O)N1CCC(Nc2ccc3cc(O)c(N4CC(=O)NS4(=O)=O)c(F)c3c2)CC1 [Compound 305, 5-(1-fluoro-3-hydroxy-7-{[1-(methanesulfonyl)piperidin-4-yl]amino}naphthalen-2-yl)-1λ^6,2,5-thiadiazolidine-1,1,3-trione]",7.00 to 8.00,60 to 90,< 25
